Data reported in patent US20250008959A1, “HERBICIDES AND USE THEREOF” (Projini Agchem LTD, priority 2021, published 2025).

Assays:
[1] = biological target: T1, OASS-SAT complex (AtOASS with SAT-derived peptide) (Arabidopsis thaliana, UniProt P47998); experiment: Fluorescence polarization (FP) competition with FITC-labeled SAT-derived peptide bound to OASS; format: binding; details: competition with FITC-SAT peptide 200 nM, OASS 2.2 μM; for IC50: single site inhibition model
T1 construct: GST (N, cleaved yes); made in house; host or cells: E. coli Rosetta (DE3)
T1 sequence (P47998 whole entry, one chain of several): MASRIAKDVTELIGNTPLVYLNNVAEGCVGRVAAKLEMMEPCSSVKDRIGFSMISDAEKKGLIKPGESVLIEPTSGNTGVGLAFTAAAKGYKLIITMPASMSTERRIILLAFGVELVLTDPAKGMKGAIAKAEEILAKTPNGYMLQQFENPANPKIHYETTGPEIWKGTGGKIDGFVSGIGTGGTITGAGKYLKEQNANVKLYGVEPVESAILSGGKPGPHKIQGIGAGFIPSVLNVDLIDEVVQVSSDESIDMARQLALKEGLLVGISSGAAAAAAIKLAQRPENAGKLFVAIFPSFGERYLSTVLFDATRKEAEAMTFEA
Description: Molecules were also tested for their ability to compete with the OASS binding to the SAT-derived peptide via a fluorescence polarization (FP) competition assay wherein the N-terminus labeled peptide was incubated with the AtOASS (see Examples section below). High FP values correspond to the peptide-bound state (low molecule concentrations) and low FP values correspond to the peptide-free state (low FP values). To extract the IC50, the FP data were fitted to a single site inhibition model in PRISM by GraphPad Software. The corresponding IC50 values were extracted, whereas low IC50 values correspond to molecule that better competes with the peptide binding to AtOASS. Fluorescence polarization (FP) measurements were made on samples arrayed in 96-well plates by using BioTek H1 Synergy instrument equipped with FP module. […] The peptide in a concentration of 200 nM was incubated with OASS at a concentration of 2.2 μM in each well. Variable concentrations of each molecule starting from 100 μM down to 0.048 μM were added to evaluate the ability of each molecule to compete off the FITC labeled peptide bound to OASS. Fluorescence experiments were executed with an Em/Exc wavelengths of 480/520 nm. All measurements were done in triplicate. Experimental polarization data from simple and competitive binding experiments were fitted using GraphPad Prism, with error bars representing SD. Molecules were also tested for their ability to compete with the OASS binding to the SAT-derived peptide via a fluorescence polarization (FP) competition assay. The N-terminus labeled peptide was incubated with the AtOASS in each of the wells in a 96-well plate. Various concentrations of the molecules were added and the FP values were recorded. High FP values correspond to the peptide-bound state (low molecule concentrations) and low FP values correspond to the peptide-free state (low FP values). To extract the IC50, the FP data were fitted to a single site inhibition model in graphpad prism. The corresponding IC50 values were extracted. Low IC50 values correspond to molecule that better competes with the peptide binding to AtOASS.

Arabidopsis thaliana = experiment: Root elongation in plates (in planta root elongation assay); format: in vivo; details: 168 h, A. thaliana on MS medium plates, 7 days, read-out: Root-growth inhibition %
Description: 6-well plates were prepared in a biological hood with sterile half Murashige and Skoog mineral medium (MS; Duchefa, Haarlem, Netherlands) containing 1% sucrose (w/v), pH 5.8. Tested molecules were dissolved in 50 mM DMSO and diluted to various concentrations 1,000-fold greater than the final desired concentration the MS medium maintaining a final concentration of 0.1% DMSO. MS medium with 0.1% DMSO was used as a negative control. After 7 days the plates were scanned and the root length was calculated using the imageJ software. […] Further sterilization was done by washing the seeds with 50% hypochlorite and 0.2% Triton x-100 for 10 minutes followed by five cycles of washing with sterile water. Six seeds were placed in each well, and the plates were covered and sealed with parafilm. Plates were placed vertically at 4° C. for two days and then transferred to a growth chamber for seven days (22-24° C.) at day/light cycles of 16/8 hours. Following the in vitro evaluation, selected molecules were tested for their ability to inhibit A. thaliana root elongation on agar plates. Seeds were plated on medium containing the molecules dissolved in the indicated concentrations and root length was measured after 6 or 7 days when the root in the non-treated plate reached the end of the well.

[2] = biological target: T2, AtOASS (O-acetyl serine sulfhydrylase from Arabidopsis thaliana) (Arabidopsis thaliana, UniProt P47998); experiment: Isothermal titration calorimetry (ITC) binding to OASS; details: for Kd: OASS titrated into compound in ITC cell, single binding model
T2 construct: GST (N, cleaved yes); made in house; host or cells: E. coli Rosetta (DE3)
T2 sequence (P47998 whole entry): as the sequence (P47998 whole entry, one chain of several) above
Description: To evaluate the ability of the molecules to bind AtOASS (O-acetyl serine sulfhydrylase from Arabidopsis thaliana), the protein was placed in the ITC syringe and was titrated with the molecules that were placed in the ITC cell (see Examples section below). The direct dissociation binding constant (Kd) was then extracted from the binding curve using a single binding model, wherein a low Kd value corresponds to a stronger binding affinity.
To evaluate the binding of the small molecules to the enzyme OASS, the purified protein was placed in a 6-8 MWCO dialysis bag in 30 mM phosphate buffer, 30 mM NaCl, 1 mM TCEP, and 5% dimethyl sulfoxide. Sequential buffer exchange dialyses were executed for 12 hours each at 4° C. until dilution of >10,000 was achieved. Before the execution of the ITC binding experiment, the OASS was placed in the ITC syringe at a concentration of 400 μM and each of the small molecules was dissolved in the same dialysis buffer to a final concentration of 40 μM in the ITC cell. ITC experiments were conducted by titrating the OASS to the compounds in the cell. The ITC binding constant was evaluated using the build-in analysis software.
The designed de-novo herbicidal compounds were synthesized and evaluated for their in vitro and in planta activity. After dissolving the molecules to a stock of 50 mM in DMSO, binding and competition with the SAT-derived peptides were evaluated using ITC and FP. ITC measures the direct heat change occurring due to the interaction of a pair of molecules. ITC has certain advantages, such as the capability to detect a relatively broad range of binding affinities, being a label-free method, and providing a wide set of interaction parameters, such as affinity, stoichiometry, enthalpy, and entropy of binding. To evaluate the ability of the molecules to bind AtOASS, the protein was placed in the ITC syringe and was titrated with the molecules that were placed in the ITC cell. The direct dissociation binding constant (Kd) was then extracted from the binding curve using a single binding model. Two consecutive experiments were combined using the built in ITC module to enable better quantification. A low Kd value corresponds to a stronger binding affinity.

| FP % inhibition [1] [%] | IC50 [1] [µM] | Kd [2] [µM] | direct binding to AtOASS by ITC (in vitro screening of purchased virtual hits) ([2]; result in words) | SMILES | inhibition at 50 µM (Arabidopsis thaliana) [%] |
| --- | --- | --- | --- | --- | --- |
| 11 | 236 | – | – | Cc1cn(-c2ccccc2)nc1NS(=O)(=O)c1cc(C(=O)O)cc2c1CCC2 [PJL-2] | 70 |
| 16 | 148 | – | – | O=C(O)c1cc(F)ccc1NS(=O)(=O)c1cnn(-c2ccccc2F)c1 [PJL-5] | 56 |
| 14 | 149 | – | – | COc1ccc(NS(=O)(=O)c2cc(C(=O)O)cc3c2CCC3)cc1Cl [PJL-21] | 0 |
| 13 | 206 | – | – | Cc1cc2cc(NS(=O)(=O)c3cc(C(=O)O)cc4c3CCC4)ccc2[nH]1 [PJL-22] | 0 |
| 11 | 188 | – | – | O=C(O)c1cc(NS(=S)(=S)c2cnc(-c3ccc(F)cc3)s2)c(F)cc1F [PJL-27] | 25 |
| 13 | 132 | 3.5 | – | O=C(O)c1cc2c(c(S(=O)(=O)Nc3cc(Cl)c(Cl)c(C(=O)O)c3)c1)CCC2 [PJL-29] | 11 |
| 11 | 300 | 6.6 | – | COc1ccc(C(=O)O)cc1S(=O)(=O)Nc1ccc(NC(=O)CC(C)C)cc1 [PJL-30] | 0 |
| 19 | 58 | – | – | CC(C)(C)NC(=O)c1cccc(NC(=O)c2ccccc2-c2ccccc2C(=O)O)c1 [PJL-59] | 6 |
| 21 | – | 8.12 | – | O=C(O)c1cc2c(c(S(=O)(=O)Nc3cccc(-c4noc(C5CCCO5)n4)c3)c1)CCC2 (stereo not shown) [PJL-69] | – |
| 15 | – | – | – | O=C(O)c1cc2c(c(S(=O)(=O)Nc3cccc(C(=O)Nc4ccccn4)c3)c1)CCC2 [PJL-70] | 0 |
| 26 | 22 | – | – | CN(C)c1ncn(-c2cccc(NS(=O)(=O)c3cc(C(=O)O)cc4c3CCC4)c2)n1 [PJL-74] | 9 |
| 11 | 150 | – | – | O=C(O)c1ccc(O)cc1NS(=O)(=O)c1cnc(-c2ccccc2)o1 [PJL-82] | 0 |
| 15 | 111 | – | – | COc1ccccc1-n1cc(S(=O)(=O)Nc2ccc(F)cc2C(=O)O)cn1 [PJL-85] | 0 |
| 36 | 20 | – | – | Cc1ccnc(-n2cc(S(=O)(=O)Nc3ccc(F)cc3C(=O)O)cn2)c1 [PJL-86] | 0 |
| 10 | 80 | – | – | CCn1nnc(-c2ccc(O)c(NC(=O)Cc3ccccc3C(=O)O)c2)n1 [PJL-88] | 0 |
| 13 | 55 | – | – | O=C(Cc1ccccc1C(=O)O)Nc1cc(C(=O)Nc2cccnc2)ccc1F [PJL-91] | – |
| 13 | 122 | – | – | CCc1nnc(-c2ccc(O)c(NC(=O)Cc3ccccc3C(=O)O)c2)o1 [PJL-92] | 0 |
| 27 | 22 | – | – | CC(C)c1n[nH]c(-c2ccc(NC(=O)Cc3ccccc3C(=O)O)cc2)n1 [PJL-95] | 10 |
| 22 | 43 | – | – | CC(C)c1n[nH]c(-c2cccc(NC(=O)Cc3ccccc3C(=O)O)c2)n1 [PJL-96] | 2 |

| FP % inhibition [1] [%] | IC50 [1] [µM] | Kd [2] [µM] | direct binding to AtOASS by ITC (in vitro screening of purchased virtual hits) ([2]; result in words) | SMILES | inhibition at 50 µM (Arabidopsis thaliana) [%] |
| --- | --- | --- | --- | --- | --- |
| 47 | 4.7 | – | – | CC(C)Cc1ccc(-c2csc(NC(=O)c3ccccc3-c3ccccc3C(=O)O)n2)cc1 [PJL-108] | 17 |
| 45 | – | – | – | Nc1cc(F)ccc1-c1csc(NC(=O)c2ccccc2-c2ccccc2C(=O)O)n1 [PJL-111] | 66 |
| 17 | 41 | 12 | – | COc1ccc(C(=O)O)c(NS(=O)(=O)c2cnn(-c3cccc(C(F)(F)F)c3)c2)c1 [PJL-114] | – |
| 36 | 12 | – | – | O=C(O)c1ccccc1-c1cccnc1C(=O)Nc1nc(-c2ccc(Cl)cc2Cl)cs1 [PJL-115] | 96 |
| 52 | 8.56 | – | – | O=C(O)c1cc(F)ccc1-c1ccccc1C(=O)Nc1nc(-c2ccc(Cl)cc2Cl)cs1 [PJL-119] | 100 |
| 14 | 115 | – | – | O=C(O)c1ccccc1-c1ccccc1C(=O)Nc1cc(-c2ccc(Cl)cc2Cl)c[nH]c1=O [PJL-120] | 88 |
| 4.6 | 322 | – | – | COc1ccc(C(=O)O)c(NS(=O)(=O)c2cnn(-c3ccc(F)cc3)c2)c1 [PJL-121] | 72 |
| 25 | – | – | – | CCc1ccc(C(=O)O)c(NS(=O)(=O)c2cnc(-c3ccc(F)cc3)s2)c1 [PJL-122] | – |
| 16 | – | – | – | COc1cc(NS(=O)(=O)c2cnc(-c3ccc(F)cc3)s2)c(C(=O)O)cc1F [PJL-123] | – |
| 56 | 3.4 | – | – | COc1ccc(-c2csc(NC(=O)c3ccc(C)cc3-c3ccccc3C(=O)O)n2)cc1 [PJL-125] | – |
| 41 | 18.5 | – | – | COc1ccc(-c2csc(NC(=O)c3cccc(C)c3-c3ccccc3C(=O)O)n2)cc1 [PJL-128] | – |
| 43 | 11 | – | – | CC(=O)Nc1ccc(C(=O)Nc2nc(-c3ccc(Cl)cc3Cl)cs2)c(-c2ccccc2C(=O)O)c1 [PJL-129] | – |
| 52 | 3.4 | – | – | O=C(O)c1ccccc1-c1cc(O)ccc1C(=O)Nc1nc(-c2ccc(Cl)cc2Cl)cs1 [PJL-130] | 93 |
| 42 | 9.3 | – | – | O=C(O)c1ccccc1-c1cc(CO)ccc1C(=O)Nc1nc(-c2ccc(Cl)cc2Cl)cs1 [PJL-131] | – |
| 51 | 4.5 | – | – | O=C(O)c1ccccc1-c1ccc(O)cc1C(=O)Nc1nc(-c2ccc(Cl)cc2Cl)cs1 [PJL-132] | – |
| 48 | 7.6 | – | – | COc1ccc(C(=O)O)c(-c2cc(N)ccc2C(=O)Nc2nc(-c3ccc(Cl)cc3Cl)cs2)c1 [PJL-133] | – |
| – | – | – | showed direct binding to AtOASS by ITC | CC(C)CNC(=O)c1cccc(NC(=O)c2ccccc2-c2ccccc2C(=O)O)c1 [PJS-120] | – |
| 18 | 54.2 | – | – | O=C(O)c1ccc(Cl)c(S(=O)(=O)Nc2cccc(C(=O)Nc3cccc(C(F)(F)F)c3)c2)c1 [PJS-227] | 39 |
